Measurements taken from PubChem BioAssay (NCI).
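Briefly, cells in 96-well plates were exposed to five compound concentrations for 48 h, and endpoints were estimated by linear interpolation. Definition used: TGI = concentration required for complete inhibition of growth.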

Tests used:
Assay in all cases: growth of human tumour cells (NCI), 48 h
[1] = system: UO-31 renal
[2] = system: SF-539 CNS
[3] = system: OVCAR-3 ovarian
[4] = system: MCF7 breast
[5] = system: ACHN renal
[6] = system: HCT-15 colon
[7] = system: SF-295 CNS
[8] = system: SK-MEL-2 melanoma
[9] = system: SF-268 CNS
[10] = system: SN12C renal
[11] = system: HCC-2998 colon

| SMILES | TGI [1] [µM] | TGI [2] [µM] | TGI [3] [µM] | TGI [4] [µM] | TGI [5] [µM] | TGI [6] [µM] | TGI [7] [µM] | TGI [8] [µM] | TGI [9] [µM] | TGI [10] [µM] | TGI [11] [µM] |
| --- | --- | --- | --- | --- | --- | --- | --- | --- | --- | --- | --- |
| CN(C)c1ccc(C2SCC(=O)N2NS(=O)(=O)c2cccc(C(=O)O)c2)cc1 (stereo not given) | > 100 | > 100 | > 100 | > 100 | > 100 | > 100 | > 100 | > 100 | > 100 | > 100 | > 100 |
| O=c1nc2c(c(-c3ccccc3Cl)[nH]1)COC/C2=C\c1ccccc1Cl | > 100 | > 100 | > 100 | > 100 | > 100 | > 100 | > 100 | > 100 | > 100 | > 100 | > 100 |
| CCOC(=O)c1ccc(N2C(=S)N(C(=O)c3ccccc3)C(=Nc3ccccc3)C2=Nc2ccccc2)cc1 | > 100 | > 100 | > 100 | > 100 | > 100 | > 100 | > 100 | > 100 | > 100 | > 100 | > 100 |
| O=C(O)CC[N+]1=CCC(c2ccccc2)(c2ccccc2)O1 | > 100 | > 100 | > 100 | > 100 | > 100 | > 100 | > 100 | > 100 | > 100 | > 100 | > 100 |
| CCC1(C(=O)OC(C)(C)C)OC12C(C)CCCC2C (stereo not given) | > 100 | > 100 | > 100 | 51.4 | 54.2 | > 100 | > 100 | > 100 | > 100 | > 100 | 45.1 |
| COc1ccc(Nc2nc(NS(=O)(=O)c3cc(C)c(Cl)cc3S)n[nH]2)cc1 | > 100 | > 100 | > 100 | > 100 | > 100 | > 100 | > 100 | > 100 | > 100 | > 100 | > 100 |
| CC1=NN(c2ccc(S(=O)(=O)O)cc2)C2(C1)SCC(=O)N2c1nc2ccccc2s1 (stereo not given) | > 100 | > 100 | > 100 | > 100 | > 100 | > 100 | > 100 | > 100 | > 100 | > 100 | > 100 |
| O=C(NCCCCCCNCc1cccc2ccccc12)Nc1cccc2ccccc12 | > 100 | > 100 | > 100 | > 100 | > 100 | > 100 | > 100 | > 100 | > 100 | > 100 | > 100 |
| Cc1ccc([C@H]2CC(=O)C[C@H](c3ccc(C)cc3)C23C(=O)c2ccccc2C3=O)cc1 | > 100 | > 100 | > 100 | > 100 | > 100 | > 100 | 51.9 | > 100 | > 100 | > 100 | > 100 |
| O=C1CCCCC(=O)OC2(CCCCC2=O)CC1 (stereo not given) | > 100 | > 100 | > 100 | > 100 | > 100 | > 100 | > 100 | > 100 | > 100 | > 100 | > 100 |
| Cc1ccc2nc(Cl)c(/C=N/N3C(=O)/C(=C/c4ccccc4S)N=C3c3ccccc3)cc2c1 | > 100 | 43 | 28.2 | > 100 | > 100 | > 100 | 84 | 52.2 | > 100 | > 100 | > 100 |
| C1CNCCNCCN1 | > 100 | > 100 | > 100 | > 100 | > 100 | > 100 | > 100 | > 100 | > 100 | > 100 | > 100 |
| CN(O)C(=O)c1cccc(Cl)c1 | > 100 | > 100 | > 100 | > 100 | > 100 | > 100 | > 100 | > 100 | > 100 | > 100 | > 100 |
| O=c1oc2ccccc2c(Nc2ccc3c(c2)Oc2ccccc2O3)c1[N+](=O)[O-] | > 100 | 36.4 | 64.2 | 47.7 | 32.7 | > 100 | 40.5 | 34.5 | 48.4 | > 100 | 62.4 |
| CCN1C(=O)C(=C/C=C/c2ccc([N+](=O)[O-])cc2)C(=O)N(CC)C1=S | 37.2 | 40.1 | 32.9 | 52.5 | 32.1 | > 100 | > 100 | 65.3 | 53 | 57.3 | > 100 |
| O=C(Cc1ccccc1)NN1C(=O)/C(=C\c2cccc(O)c2)SC1=Nc1ccccc1 | > 100 | > 100 | > 100 | > 100 | > 100 | > 100 | > 100 | > 100 | > 100 | > 100 | > 100 |
| O=c1[nH]nc(Cc2ccc([N+](=O)[O-])cc2)n1CCO | > 100 | > 100 | > 100 | > 100 | > 100 | > 100 | > 100 | > 100 | > 100 | > 100 | > 100 |
| CC(=O)O[C@H]1C#C/C=C\C#CC[C@@H]2C(=O)N[C@@H]12 | > 62.8 | 5.39 | > 100 | > 100 | 52.2 | > 82 | > 100 | > 100 | > 70.2 | > 80.4 | > 100 |
| N#C/C(=C\n1ccc(=O)[nH]c1=S)C(N)=O | > 100 | > 100 | 0.673 | > 100 | > 100 | > 100 | > 100 | > 100 | > 100 | > 100 | > 100 |
| OCC1OC(n2cnc3c(Cl)nc(Nc4ccccc4)nc32)CC1O (stereo not given) | 33.7 | > 100 | > 100 | > 100 | 32.1 | 60.8 | > 100 | > 100 | > 100 | > 100 | 44.7 |
| CCC(C#N)NC(=O)NC(C#N)CC (stereo not given) | > 100 | > 100 | > 100 | > 100 | > 100 | > 100 | > 100 | > 100 | > 100 | > 100 | > 100 |
| CNC(=O)Oc1ccc(-c2cn3cc(OC(=O)NC)ccc3n2)cc1 | > 100 | > 100 | > 100 | > 100 | > 100 | > 100 | > 100 | > 100 | 75 | > 100 | > 100 |
| C=C1C(=O)CC2C(=O)C(C)(O)CC/C=C(\C)C(=O)CC12 (stereo not given) | 21.1 | 59.8 | 59 | 36.6 | 27.3 | 37.7 | > 100 | > 82.9 | > 76.1 | 29.5 | > 100 |
| Nc1cccc(Nc2nc3ccccc3nc2NS(=O)(=O)c2ccccc2)c1 | 50.4 | 45.3 | 47.3 | > 100 | > 100 | 74.2 | > 100 | 31.3 | > 100 | > 100 | 33.9 |
| CCOC(=O)/C=C(/C(=O)OCC)n1ccc(N)nc1=O | > 100 | > 100 | > 100 | > 100 | > 100 | > 100 | > 100 | > 100 | > 100 | > 100 | > 100 |
| Cc1ccc(-c2cc(N)n(-c3nc4c(c(=O)n(C)c(=O)n4C)n3C)n2)cc1 | > 100 | > 100 | > 100 | > 100 | > 100 | > 100 | > 100 | > 100 | > 100 | > 100 | > 100 |
| Cc1cn(C2CC(n3cc(Cn4cc(Br)c(=O)[nH]c4=O)nn3)C(CO)O2)c(=O)[nH]c1=O (stereo not given) | > 100 | > 100 | > 100 | > 100 | > 100 | > 100 | > 100 | > 100 | > 100 | > 100 | > 100 |
| O=c1c2ncn(COCCCl)c2n(-c2ccccc2)c(=S)n1-c1ccccc1 | > 100 | > 100 | > 100 | > 100 | > 100 | > 100 | > 100 | > 100 | > 100 | > 100 | > 100 |
| Cc1ccc2c(=O)cc(-c3cccs3)[nH]c2n1 | 35.6 | 33.1 | > 100 | > 100 | > 100 | > 100 | > 69.6 | > 82.7 | > 100 | > 100 | > 83.2 |
| C/C=C/C(O)P1(=O)N(Cc2ccccc2)[C@@H]2CCCC[C@H]2N1Cc1ccccc1 (stereo not given in full) | > 25 | > 25 | > 25 | > 25 | > 25 | > 25 | > 25 | > 25 | > 25 | > 25 | > 25 |
